Assay results published in patent publication US11845984B2, “Methods for obtaining and correcting biological sequence information” (CYGNUS BIOSCIENCES (BEIJING) CO., LTD., priority 2015, dated 2023).

Assay: Spectral (optical) properties of fluorophores
Format: physicochemical
Procedure: Although Me-FAM has similar maximum emission wavelength as TG, the extinction coefficient and quantum yield of Me-FAM are much lower (FIG. 8). At the same time, the broad emission spectrum of Me-FAM greatly overlapped with other fluorophores like Me-HCF, which makes it inapplicable for multi-color sequencing application in future. Instead, the strong fluorescence and narrower spectrum of TG will tackle the problem more easily.
First, the spectrums of TG-dA4P were measured at room temperature. For emission measurement: set excitation wavelength at 460 nm, scan 480 to 600 nm for emission; for absorption measurement: scan 310 to 550 nm. Then CIP and PDE were added and spectrum was recorded sequentially at the same condition.

## Cc1ccccc1-c1c2ccc(=O)cc-2oc2cc(O)ccc12 [TG, Tokyo Green]
  Emission max: 513 nm
  Excitation max: 490 nm
  Extinction coefficient: 8 × 10^4
  Quantum Yield: 82%
At 490 nm
  fluorescence quantum yield: 0.82
